± gives the expanded uncertainty stated by the source.
Conditions: 101.33 kPa, Liquid, Vibrating tube method

Row | mass density (313.2 K) | Compound | mass density (288.2 K) | mass density (298.2 K)
1 | 992.13 ± 1 kg/m3 | O [water] |  | 
2 | 1026.72 ± 1 kg/m3 | CC(=O)O [acetic acid] | 1055.01 ± 1 kg/m3 | 1043.67 ± 1 kg/m3

Row | Compound | mass density (313.2 K) | mass density (288.2 K) | mass density (298.2 K)
3 | Cc1ccccc1 [toluene] | 848.23 ± 1 kg/m3 | 871.92 ± 1 kg/m3 | 862.49 ± 1 kg/m3

Reference: the NIST ThermoML archive (doi:10.1016/j.jct.2014.02.005)
